Data published in EP4755877A1, “MODIFIED FLAVONE COMPOUNDS AND USE THEREOF” (Suzhou Glenkol Pharma Technology Co., Ltd., priority 2023, dated 2025).
Where two headings read alike, the source gives them in different places.

Assays:
PC-12 cells = test: Glutamate-induced excitotoxic death of PC-12 cells, survival by propidium iodide/Hoechst staining; type: cell-based, rat; conditions: for Enhancement of Cell Survival Rate: PC-12 cells, glutamate-induced death, compound at 100 nM; for EC50: Rattus norvegicus, promotion of PC-12 survival under glutamate stimulation, 30 min pretreatment, 1 pM-100 µM, 24 h glutamate
Protocol: PC-12 cells (a […] cell line derived from rat adrenal medulla) were cultured in DMEM/F12 complete medium until 80-90% confluency. After being digested, collected, and resuspended, the cells were seeded into 24-well plates pre-coated with coverslips at a density of 5×10^4 cells per well. Following 26 hours of cell culture, glutamate-induced excitotoxic cell death modeling was performed. The modeling method was as follows: an appropriate amount of glutamate was weighed and dissolved in DMEM/F12 medium to prepare a stock solution; after filtration, the stock solution was diluted with the same medium, and the cells were administered with the diluted solution by medium replacement. After administration, the cells were further incubated for 24 hours.
Prior to glutamate modeling, cells incubated in the previous step were pretreated with small-molecule compounds listed in Table 1 at concentrations of 1 pM, 10 pM, 100 pM, 1 nM, 10 nM, 100 nM, 1 µM, 10 µM, and 100 µM for 30 minutes, followed by glutamate stimulation.
The cells treated with the compounds were stained with propidium iodide to assess cell death. After the medium was discarded, the cells were washed with PBS. Subsequently, propidium iodide/Hoechst was added. Following incubation for 30 minutes, the staining solution was removed, and the cells were washed with PBS again before being fixed and mounted on slides. Image acquisition was performed under a fluorescence microscope. The propidium iodide-positive cells and Hoechst-positive cells in the collected images were counted to calculate the cell survival rate. The survival rate was calculated using the formula: Cell survival rate = (1 - Number of Propidium Iodide-positive cells / Number of Hoechst-positive cells) × 100%. The gradient concentrations of the small molecule compounds and the corresponding normalized survival rates were imported into Prism software, and EC50 values were calculated using a non-linear regression model. 7,8-dihydroxyflavone was used as the positive control drug. Table 1: Dose-response relationship study of various compounds in promoting PC-12 neurocytes survival
Based on the aforementioned dose-response relationship study of the compounds, the inhibitory effects of different small molecule compounds on glutamate-induced excitotoxic death of PC-12 cells were further compared at the same dose (100 nM). Table 2: Study on the promoting effects of various compounds on PC-12 neurocytes survival

[1] = Pharmacokinetics in rats after intravenous and oral gavage dosing, plasma LC-MS/MS; type: in vivo; conditions: rat
Protocol: Preparation of intravenous bolus administration formulations: A graduation line for the final volume was marked on a clean and dry container. An appropriate amount of the test sample was weighed and added to the container to prepare a solution with a final concentration of 1 mg/mL.
Preparation of oral gavage administration formulations: A graduation line for the final volume was marked on a clean and dry container. An appropriate amount of the test sample was weighed and added to the container to prepare a solution with a final concentration of 3 mg/mL.
After preparation, the formulations were stored at room temperature and used on the day of preparation. A total of 2 groups of rats were set up, with […] per group (half male and half female). The compounds were administered to the rats at a dose of 1 mg/kg via intravenous injection and 15 mg/kg via oral gavage, respectively. All animals were allowed free access to food and water.
Intravenous administration: Before administration (0 h) and at 0.083, 0.167, 0.5, 1.0, 2.0, 4.0, 6.0, and 24 h after administration, 0.2 mL of blood samples were collected from the jugular vein and transferred to anticoagulant tubes (pre-cooled in advance for at least 5 minutes). The tubes were gently inverted several times to fully mix the blood with the anticoagulant. The blood samples were centrifuged at 4 °C for 10 minutes to separate the plasma. 95 µ L of plasma was collected and transferred to a centrifuge tube, which was stored in a refrigerator at below -80 °C until analysis.
Single oral gavage administration: Before administration (0 h) and at 0.167, 0.5, 1.0, 2.0, 4.0, 6.0, and 24 h after administration, 0.2 mL of blood samples were collected from the jugular vein and transferred to anticoagulant tubes. The sample processing method was the same as described above.
The concentration of the compounds in plasma was determined by LC-MS/MS, and data acquisition was performed using Analyst 1.6.3 software (AB Sciex). The pharmacokinetic parameters of the rats after administration were calculated using the non-compartmental model in Phoenix WinNonlin software.
7,8-dihydroxyflavone served as the control drug for comparing the pharmacokinetic characteristics of various compound. Table 3: PK parameters of various compound

[2] = both sexes, Sprague-Dawley, SD rats, plasma, 15 mg/kg oral gavage / 1 mg/kg intravenous, table does not state the route
[3] = in vivo, SD rats, plasma, 15 mg/kg oral gavage / 1 mg/kg intravenous, table does not state the route
[4] = in vivo, SD rats, 15 mg/kg oral gavage vs 1 mg/kg intravenous, read-out: Oral Bioavailability F (%)
[5] = in vivo, SD rats, plasma, 15 mg/kg oral gavage / 1 mg/kg intravenous, table does not state the route, read-out: t1/2 (converted)

SMILES | Enhancement of Cell Survival Rate (PC-12 cells) [%] | EC50 (PC-12 cells) [pM] | AUC(0-t) [1, 3] [µM·h] | Cmax [1, 3] [nM] | bioavailability [1, 4] [%] | half-life [1, 5] [h] | also measured
O=c1cc(-c2ccccc2)oc2c(O)c(O)ccc12 [7,8-dihydroxyflavone, 7,8-dihydroxyflavone, reference compound] | 33.58 | 159 | – | – | – | – | bioavailability ([1]; both sexes, Sprague-Dawley, plasma, SD rats, 15 mg/kg oral gavage vs 1 mg/kg intravenous, read-out: Oral Bioavailability F (%)): 1.9%; AUC(0-t) [1, 2]: 0.1 µM·h; Cmax [1, 2]: 75.1 nM; half-life ([1]; both sexes, Sprague-Dawley, SD rats, plasma, 15 mg/kg oral gavage / 1 mg/kg intravenous, table does not state the route, read-out: t1/2 (converted)): 3.32 h
O=c1cc(-c2ccccc2)oc2c(F)c(O)ccc12 [Compound S1] | – | 12 | 0.181 | 94.9 | – | – | –
O=C(O)[C@H]1O[C@@H](Oc2c(O)ccc3c(=O)cc(-c4ccccc4)oc23)[C@H](O)[C@@H](O)[C@@H]1O [Compound S7] | – | 11.1 | 2.36 | 245 | 66.9 | – | –
O=c1cc(C2CCNCC2)oc2c(O)c(O)ccc12 [Compound S12] | – | < 1 | 0.151 | 113 | 1.9 | 1.84 | –
[2H]c1c([2H])c([2H])c(-c2cc(=O)c3ccc(O[C@@H]4O[C@H](C(=O)O)[C@@H](O)[C@H](O)[C@H]4O)c(O)c3o2)c([2H])c1[2H] [Compound S25] | – | – | – | 3590 | 52 | 5.38 | –
O=c1cc(C2CCNCC2)oc2c(F)c(O)ccc12 [Compound S26] | – | – | 0.252 | 68.1 | – | 4.54 | –
O=c1cc(C2CCNCC2)oc2c(O[C@@H]3OC[C@@H](O)[C@H](O)[C@H]3O)c(O)ccc12 [Compound S27] | – | – | – | – | – | – | half-life ([1]; in vivo): 1.77 h
O=c1cc(C2CCNCC2)oc2c(O[C@@H]3O[C@H](CO)[C@@H](O)[C@H](O)[C@H]3O)c(O)ccc12 [Compound S28] | 43.06 | – | – | – | – | – | half-life ([1]; in vivo): 16.7 h; bioavailability ([1]; in vivo, po, 15 mg/kg): 2.72%
COc1ccc2c(=O)cc(C3CCNCC3)oc2c1O [Compound S29] | 73.51 | – | 0.331 | 91.3 | 3.38 | 2.57 | –
O=c1cc(C2CCNCC2)oc2c(F)c(F)ccc12 [Compound S30] | 83.78 | – | 10.3 | 1260 | 112 | 11.4 | –
